Where two headings read alike, the source gives them in different places.
How the values were obtained:
Assay in all cases: Kinase panel
Format in all cases: biochemical
CDK5/p35(h) = biological target: T1, CDK5/p35(h) (Homo sapiens, UniProt Q00535)
T1 construct: purchased Millipore KinaseProfiler

PAK6(h) = biological target: T2, PAK6(h) (Homo sapiens, UniProt Q9NQU5)
T2 construct: purchased Millipore KinaseProfiler

PAK4(h) = biological target: T3, PAK4(h) (Homo sapiens, UniProt O96013)
T3 construct: purchased Millipore KinaseProfiler
T3 sequence (O96013 whole entry): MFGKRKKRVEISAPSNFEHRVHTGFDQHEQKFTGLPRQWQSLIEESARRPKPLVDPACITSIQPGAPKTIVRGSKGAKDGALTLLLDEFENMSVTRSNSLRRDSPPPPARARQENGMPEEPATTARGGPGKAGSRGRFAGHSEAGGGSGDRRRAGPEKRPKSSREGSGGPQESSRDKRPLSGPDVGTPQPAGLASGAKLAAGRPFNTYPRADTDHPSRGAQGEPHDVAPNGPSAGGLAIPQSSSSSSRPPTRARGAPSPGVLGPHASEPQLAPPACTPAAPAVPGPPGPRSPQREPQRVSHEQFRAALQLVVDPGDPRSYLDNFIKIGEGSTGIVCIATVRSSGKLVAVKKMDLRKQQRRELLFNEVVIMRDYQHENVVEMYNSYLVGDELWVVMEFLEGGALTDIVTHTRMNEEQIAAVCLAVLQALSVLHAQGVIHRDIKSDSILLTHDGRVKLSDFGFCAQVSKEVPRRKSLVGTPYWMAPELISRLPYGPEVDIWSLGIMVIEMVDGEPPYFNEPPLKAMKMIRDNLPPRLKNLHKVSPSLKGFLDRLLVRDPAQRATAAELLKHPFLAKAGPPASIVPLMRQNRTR

Abl(T315I)(h) = biological target: T4, Abl(T315I)(h) (Homo sapiens, UniProt P00519, T315I)
T4 construct: purchased Millipore KinaseProfiler

SGK2(h) = biological target: T5, SGK2(h) (Homo sapiens, UniProt Q9HBY8)
T5 construct: purchased Millipore KinaseProfiler
T5 sequence (Q9HBY8 1-367): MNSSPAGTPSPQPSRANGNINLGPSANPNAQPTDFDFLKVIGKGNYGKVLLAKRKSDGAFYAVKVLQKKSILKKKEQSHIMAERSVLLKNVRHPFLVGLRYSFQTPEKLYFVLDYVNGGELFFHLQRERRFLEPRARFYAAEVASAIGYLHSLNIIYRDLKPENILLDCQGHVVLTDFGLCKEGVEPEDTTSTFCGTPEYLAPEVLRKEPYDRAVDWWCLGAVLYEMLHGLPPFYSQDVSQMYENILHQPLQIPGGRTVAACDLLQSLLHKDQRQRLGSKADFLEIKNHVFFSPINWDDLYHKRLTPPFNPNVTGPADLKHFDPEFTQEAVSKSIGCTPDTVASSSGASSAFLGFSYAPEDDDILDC

EphB3(h) = biological target: T6, EphB3(h) (Homo sapiens, UniProt P54753)
T6 construct: purchased Millipore KinaseProfiler
T6 sequence (P54753 34-998): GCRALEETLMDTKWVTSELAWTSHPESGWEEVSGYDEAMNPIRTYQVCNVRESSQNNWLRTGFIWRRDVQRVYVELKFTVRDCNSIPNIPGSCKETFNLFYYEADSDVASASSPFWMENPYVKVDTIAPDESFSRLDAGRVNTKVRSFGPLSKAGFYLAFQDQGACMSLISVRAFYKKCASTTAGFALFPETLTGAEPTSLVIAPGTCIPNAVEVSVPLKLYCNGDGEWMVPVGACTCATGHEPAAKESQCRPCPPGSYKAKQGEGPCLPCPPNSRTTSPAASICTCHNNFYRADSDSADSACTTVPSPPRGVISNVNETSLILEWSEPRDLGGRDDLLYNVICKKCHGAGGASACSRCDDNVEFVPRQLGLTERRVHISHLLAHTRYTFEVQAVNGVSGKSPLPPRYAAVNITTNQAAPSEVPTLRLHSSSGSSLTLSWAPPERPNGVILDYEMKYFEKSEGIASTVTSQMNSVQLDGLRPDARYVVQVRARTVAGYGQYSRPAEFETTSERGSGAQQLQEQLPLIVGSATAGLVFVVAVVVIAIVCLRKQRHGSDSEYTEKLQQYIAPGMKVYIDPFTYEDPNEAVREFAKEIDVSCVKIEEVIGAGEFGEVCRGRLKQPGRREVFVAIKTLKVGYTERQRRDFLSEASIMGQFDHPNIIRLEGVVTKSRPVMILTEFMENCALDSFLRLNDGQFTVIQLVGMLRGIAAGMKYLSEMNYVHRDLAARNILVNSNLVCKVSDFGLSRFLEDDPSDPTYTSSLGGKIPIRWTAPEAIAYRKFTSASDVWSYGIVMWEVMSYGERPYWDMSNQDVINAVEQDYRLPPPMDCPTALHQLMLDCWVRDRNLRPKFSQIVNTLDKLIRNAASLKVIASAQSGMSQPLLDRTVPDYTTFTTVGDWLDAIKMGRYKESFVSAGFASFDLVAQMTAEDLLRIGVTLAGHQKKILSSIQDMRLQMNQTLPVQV

BrSK2(h) = biological target: T7, BrSK2(h) (Homo sapiens, UniProt Q8IWQ3)
T7 construct: purchased Millipore KinaseProfiler
T7 sequence (Q8IWQ3 1-736): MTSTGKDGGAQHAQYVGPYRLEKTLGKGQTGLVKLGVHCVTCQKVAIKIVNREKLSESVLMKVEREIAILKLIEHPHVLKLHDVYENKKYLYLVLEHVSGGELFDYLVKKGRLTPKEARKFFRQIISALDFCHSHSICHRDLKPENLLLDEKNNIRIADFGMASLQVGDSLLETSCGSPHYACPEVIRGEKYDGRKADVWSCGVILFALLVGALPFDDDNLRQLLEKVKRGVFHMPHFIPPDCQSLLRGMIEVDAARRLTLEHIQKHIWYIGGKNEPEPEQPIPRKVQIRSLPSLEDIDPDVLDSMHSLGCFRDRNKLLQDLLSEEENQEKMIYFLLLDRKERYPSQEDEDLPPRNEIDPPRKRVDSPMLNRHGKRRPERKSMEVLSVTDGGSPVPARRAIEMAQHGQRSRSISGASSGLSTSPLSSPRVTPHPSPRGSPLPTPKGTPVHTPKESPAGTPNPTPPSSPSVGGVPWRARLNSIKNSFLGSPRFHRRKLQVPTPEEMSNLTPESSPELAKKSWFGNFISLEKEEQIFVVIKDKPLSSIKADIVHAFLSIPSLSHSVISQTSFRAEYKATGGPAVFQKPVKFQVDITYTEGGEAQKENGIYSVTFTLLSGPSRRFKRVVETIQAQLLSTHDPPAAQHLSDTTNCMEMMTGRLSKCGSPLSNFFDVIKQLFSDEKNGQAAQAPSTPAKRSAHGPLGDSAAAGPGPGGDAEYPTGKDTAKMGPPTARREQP

Ret (V804L)(h) = biological target: T8, Ret (V804L)(h) (Homo sapiens, UniProt P07949, V804L)
T8 construct: purchased Millipore KinaseProfiler
T8 sequence (P07949 29-1114 V804L): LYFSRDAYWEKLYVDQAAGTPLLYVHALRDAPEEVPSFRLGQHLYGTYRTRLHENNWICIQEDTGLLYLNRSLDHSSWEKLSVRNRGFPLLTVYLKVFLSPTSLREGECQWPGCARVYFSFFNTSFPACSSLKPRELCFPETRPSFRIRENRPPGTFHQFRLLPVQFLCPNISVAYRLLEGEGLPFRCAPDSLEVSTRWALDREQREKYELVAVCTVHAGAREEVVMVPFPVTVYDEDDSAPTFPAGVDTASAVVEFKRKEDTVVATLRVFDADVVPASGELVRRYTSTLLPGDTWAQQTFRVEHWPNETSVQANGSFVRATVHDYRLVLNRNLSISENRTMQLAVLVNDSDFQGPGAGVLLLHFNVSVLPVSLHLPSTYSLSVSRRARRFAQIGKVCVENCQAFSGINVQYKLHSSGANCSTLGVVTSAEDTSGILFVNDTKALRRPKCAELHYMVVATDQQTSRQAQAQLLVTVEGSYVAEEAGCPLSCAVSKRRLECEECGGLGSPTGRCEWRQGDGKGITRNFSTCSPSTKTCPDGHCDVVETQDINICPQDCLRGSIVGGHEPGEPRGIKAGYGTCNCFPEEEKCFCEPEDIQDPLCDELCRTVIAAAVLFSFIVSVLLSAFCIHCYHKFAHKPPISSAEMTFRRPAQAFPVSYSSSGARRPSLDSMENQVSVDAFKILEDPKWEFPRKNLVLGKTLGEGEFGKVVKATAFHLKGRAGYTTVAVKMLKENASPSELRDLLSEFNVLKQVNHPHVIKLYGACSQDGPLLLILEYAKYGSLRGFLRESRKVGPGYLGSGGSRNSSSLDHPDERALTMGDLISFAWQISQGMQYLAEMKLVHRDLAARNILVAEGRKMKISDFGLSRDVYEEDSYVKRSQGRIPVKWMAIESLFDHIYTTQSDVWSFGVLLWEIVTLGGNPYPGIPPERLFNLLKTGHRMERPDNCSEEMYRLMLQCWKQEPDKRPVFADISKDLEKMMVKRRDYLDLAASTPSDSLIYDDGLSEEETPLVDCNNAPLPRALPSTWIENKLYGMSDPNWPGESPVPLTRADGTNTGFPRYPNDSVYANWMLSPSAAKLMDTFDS

p70S6K(h) = biological target: T9, p70S6K(h) (Homo sapiens, UniProt P23443)
T9 construct: purchased Millipore KinaseProfiler
T9 sequence (P23443 whole entry): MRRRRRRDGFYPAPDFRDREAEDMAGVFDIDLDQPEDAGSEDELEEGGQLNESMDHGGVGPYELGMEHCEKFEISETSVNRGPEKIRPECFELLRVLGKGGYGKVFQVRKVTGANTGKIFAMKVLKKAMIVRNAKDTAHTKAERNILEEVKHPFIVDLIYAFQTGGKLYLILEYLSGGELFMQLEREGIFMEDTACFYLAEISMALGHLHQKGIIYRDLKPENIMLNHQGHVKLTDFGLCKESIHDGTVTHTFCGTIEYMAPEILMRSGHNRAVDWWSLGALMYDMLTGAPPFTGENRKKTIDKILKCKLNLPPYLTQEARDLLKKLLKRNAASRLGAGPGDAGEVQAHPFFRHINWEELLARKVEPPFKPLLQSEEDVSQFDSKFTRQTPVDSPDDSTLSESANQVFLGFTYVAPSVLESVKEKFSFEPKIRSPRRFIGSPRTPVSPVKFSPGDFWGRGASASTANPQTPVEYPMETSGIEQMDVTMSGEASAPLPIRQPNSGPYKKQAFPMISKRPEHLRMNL

T1 sequence (Q00535 whole entry): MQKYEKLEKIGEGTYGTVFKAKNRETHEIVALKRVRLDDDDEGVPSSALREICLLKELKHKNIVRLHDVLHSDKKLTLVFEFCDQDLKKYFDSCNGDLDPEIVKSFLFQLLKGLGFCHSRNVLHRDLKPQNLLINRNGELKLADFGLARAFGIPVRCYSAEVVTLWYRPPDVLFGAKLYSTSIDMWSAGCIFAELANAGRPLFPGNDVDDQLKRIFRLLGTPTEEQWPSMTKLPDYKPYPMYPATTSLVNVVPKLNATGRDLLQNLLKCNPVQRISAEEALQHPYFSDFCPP
T1 sequence (Q15078 whole entry partner): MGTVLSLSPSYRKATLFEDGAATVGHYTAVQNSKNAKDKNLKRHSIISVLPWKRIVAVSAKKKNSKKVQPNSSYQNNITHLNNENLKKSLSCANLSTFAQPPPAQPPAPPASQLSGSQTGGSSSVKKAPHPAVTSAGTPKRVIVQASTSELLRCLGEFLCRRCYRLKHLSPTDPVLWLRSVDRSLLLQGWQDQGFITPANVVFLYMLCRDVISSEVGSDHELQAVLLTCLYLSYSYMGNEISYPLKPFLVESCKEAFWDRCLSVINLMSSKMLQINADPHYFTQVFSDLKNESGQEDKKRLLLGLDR
T2 sequence (Q9NQU5 whole entry): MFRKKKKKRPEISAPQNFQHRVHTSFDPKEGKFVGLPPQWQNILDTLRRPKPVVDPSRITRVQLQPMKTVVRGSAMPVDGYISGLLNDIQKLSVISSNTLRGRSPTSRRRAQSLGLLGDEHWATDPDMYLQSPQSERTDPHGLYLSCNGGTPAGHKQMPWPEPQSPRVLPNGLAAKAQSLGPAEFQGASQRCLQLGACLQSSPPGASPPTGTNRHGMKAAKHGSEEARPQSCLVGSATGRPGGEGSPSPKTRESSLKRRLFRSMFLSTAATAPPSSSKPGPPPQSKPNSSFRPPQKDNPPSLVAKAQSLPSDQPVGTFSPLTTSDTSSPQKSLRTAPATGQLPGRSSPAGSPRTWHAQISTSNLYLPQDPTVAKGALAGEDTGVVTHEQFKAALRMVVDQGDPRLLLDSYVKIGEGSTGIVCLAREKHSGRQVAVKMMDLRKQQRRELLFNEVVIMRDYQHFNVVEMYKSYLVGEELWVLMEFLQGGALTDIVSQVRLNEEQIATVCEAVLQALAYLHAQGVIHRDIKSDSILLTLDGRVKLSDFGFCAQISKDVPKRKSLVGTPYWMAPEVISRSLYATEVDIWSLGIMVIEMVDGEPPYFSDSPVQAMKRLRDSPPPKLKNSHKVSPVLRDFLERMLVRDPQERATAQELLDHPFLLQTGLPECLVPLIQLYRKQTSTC

Cn1ncc(Cl)c1-c1cc(C(=O)N[C@H](CN)Cc2cccc(F)c2)sc1Cl [GSK2110183]
inhibition at 0.5 µM (CDK5/p35(h)): -10% | inhibition at 10 µM (CDK5/p35(h)): 17% | inhibition at 0.5 µM (PAK6(h)): 13% | inhibition at 10 µM (PAK6(h)): 73% | inhibition at 0.5 µM (PAK4(h)): -13% | inhibition at 10 µM (PAK4(h)): 17% | inhibition at 0.5 µM (Abl(T315I)(h)): -1% | inhibition at 10 µM (Abl(T315I)(h)): 6% | inhibition at 0.5 µM (SGK2(h)): 51% | inhibition at 10 µM (SGK2(h)): 95% | inhibition at 0.5 µM (EphB3(h)): 12% | inhibition at 10 µM (EphB3(h)): -9% | inhibition at 0.5 µM (BrSK2(h)): -2% | inhibition at 10 µM (BrSK2(h)): 17% | inhibition at 0.5 µM (Ret (V804L)(h)): -5% | inhibition at 10 µM (Ret (V804L)(h)): 16% | inhibition at 0.5 µM (p70S6K(h)): 78% | inhibition at 10 µM (p70S6K(h)): 97%

Cn1ncc(Cl)c1-c1cc(C(=O)N[C@H](CN)Cc2ccc(F)c(F)c2)oc1Cl [GSK2141795]
inhibition at 0.5 µM (CDK5/p35(h); 0.5 µM, read-out: % Inhibition): -14% | inhibition at 10 µM (CDK5/p35(h); 10 µM, read-out: % Inhibition): 32% | inhibition at 0.5 µM (PAK6(h); 0.5 µM, read-out: % Inhibition): 11% | inhibition at 10 µM (PAK6(h); 10 µM, read-out: % Inhibition): 64% | inhibition at 0.5 µM (PAK4(h); 0.5 µM, read-out: % Inhibition): 4% | inhibition at 10 µM (PAK4(h); 10 µM, read-out: % Inhibition): 39% | inhibition at 0.5 µM (Abl(T315I)(h); 0.5 µM, read-out: % Inhibition): -2% | inhibition at 10 µM (Abl(T315I)(h); 10 µM, read-out: % Inhibition): -2% | inhibition at 0.5 µM (SGK2(h); 0.5 µM, read-out: % Inhibition): 67% | inhibition at 10 µM (SGK2(h); 10 µM, read-out: % Inhibition): 97% | inhibition at 0.5 µM (EphB3(h); 0.5 µM, read-out: % Inhibition): -2% | inhibition at 10 µM (EphB3(h); 10 µM, read-out: % Inhibition): 9% | inhibition at 0.5 µM (BrSK2(h); 0.5 µM, read-out: % Inhibition): 2% | inhibition at 10 µM (BrSK2(h); 10 µM, read-out: % Inhibition): 27% | inhibition at 0.5 µM (Ret (V804L)(h); 0.5 µM, read-out: % Inhibition): 4% | inhibition at 10 µM (Ret (V804L)(h); 10 µM, read-out: % Inhibition): 21% | inhibition at 0.5 µM (p70S6K(h); 0.5 µM, read-out: % Inhibition): 88% | inhibition at 10 µM (p70S6K(h); 10 µM, read-out: % Inhibition): 98%

Source: publication PMC4076210, “Discovery of Novel AKT Inhibitors with Enhanced Anti-Tumor Effects in Combination with the MEK Inhibitor” (PLoS ONE, 2014)
